From patent US20150086647A1, “PEROXYGEN RELEASE COMPOSITIONS AND METHOD FOR PRODUCING THEM” (CREACHEM SA, priority 2012, published 2015) come the findings set out here.

This data set in a line: Stability in the presence of ferric EDTA (Fe-catalyzed hydrogen peroxide decomposition). The format is physicochemical. Particulars: with ferric EDTA; for hydrogen peroxide concentration: diluted with tap water. As to the method: Approximately 250 μL of a 3% solution of ferric EDTA (ethylenediaminetetracetic acid), at pH 7, was added to 3.5 grams of the composition obtained from EXAMPLE I.
The same amount of ferric EDTA was added to 3.5 grams of a 27.5% wt H2O2 solution. Both the 3.5 grams of the composition according to EXAMPLE I and the 3.5 grams H2O2 solution, both containing the ferric EDTA, were diluted with a quantity of tap water until the water contained 50 ppm of H2O2, determined with colorimetric reagent strips (Merck).
The following table indicates the evolution of the hydrogen peroxide concentration (ppm) in both samples.

Turning to H2O2 [Diluted H2O2], for the setting “diluted to 50 ppm H2O2”, the “gas bubbles indicating Fe-catalyzed hydrogen peroxide decomposition” value is listed as “appeared almost instantly”. Moreover, the hydrogen peroxide concentration by setting is: (0 h) 50 ppm; (4 h) 20 ppm; (18 h) 15 ppm.
